pIC50: −log10 of the molar value. “Also recorded” adds a separate entry of the source. Blank lines part the entries; values can stand above or below the compound they belong to.
Key:
[1] = test system: mutant c-Met (T1010I) on ACHN human renal cell carcinoma cells; test: Flow cytometric analysis of c-Met on the surface of ACHN cells; type: cell-based; conditions: 18 hours, read-out: IC50 for degradation of mutant c-Met
Procedure: (§1) Flow cytometric analysis was used to monitor the degradation of c-Met over-expressed on the surface of the ACHN human renal cell carcinoma cell line which contains the juxtamembrane domain mutation (C3223T: T1010I) and is constitutively active, and the MKN45 which is a c-Met amplified human gastric carcinoma cell line. ACHN and MKN45 cells (5×10^5 cells) were treated with Compound 226, 17-AAG or 17-DMAG for 18 hours. After treatment the cells were stained with FITC conjugated c-MET antibody. The expression of the c-Met cell surface proteins was measured by flow cytometry analysis (see FIG. 4 for ACHN cells and FIG. 5 for MKN45 cells). The IC50 value was determined by XLfit software.

[2] = test system: c-Met on MKN45 c-Met amplified human gastric carcinoma cells; test: Flow cytometric analysis of c-Met on the surface of MKN45 cells; type: cell-based; conditions: MKN-45 cell line, 18 hours; read-out: IC50 for degradation of c-Met
Procedure: as §1

[3] = test system: MNK45 cell line, c-Met amplified human gastric carcinoma; test: Cell survival of MKN45 cells (Cell Counting Kit-8); type: cell-based; conditions: 72 hours
Procedure: MNK45 cell line, (DSMZ #ACC 409), which is a c-Met amplified human gastric carcinoma cell line, was obtained from the Deutsche Sammlung von Mikroorganismen and Zellkulturen GmbH (DSMZ; Braunschweig, Germany). […] MNK45 cells (20,000 cells/well) were cultured in 96-well plates and maintained at 37° C. for several hours. The cells were incubated at 37° C. for 72 hours with various concentrations of compound 226 of the invention, 17AAG, or DMAG. 17AAG and 17DMAG are Hsp90 inhibitors that are currently in clinical trials and are used here as positive controls for Hsp90 inhibition. Cell survival was measured with Cell Counting Kit-8 (Dojindo Laboratories, Cat # CK04).

[4] = test system: human tumor cell line MDA-MB-435S; test: MDA-MB-435S nude mouse xenograft model; type: in vivo; conditions: 300 mg/kg body weight, IP, 5 days per week for 3 weeks
Procedure: FBS was obtained from Sigma-Aldrich Corp. (St. Louis, Mo., USA), and all other reagents were obtained from Invitrogen Corp. (Carlsbad, Calif., USA). Approximately 4-5×10(6) cells that had been cryopreserved in liquid nitrogen were rapidly thawed at 37° C. and transferred to a 175 cm^2 tissue culture flask containing 50 ml of growth media and then incubated at 37° C. in a 5% CO2 incubator. The growth media was replaced every 2-3 days until the flask became 90% confluent, typically in 5-7 days. To passage and expand the cell line, a 90% confluent flask was washed with 10 ml of room temperature phosphate buffered saline (PBS) and the cells were disassociated by adding 5 ml 1× Trypsin-EDTA (Invitrogen) and incubating at 37° C. until the cells detached from the surface of the flask. […] The supernatant was aspirated and the cell pellet was resuspended in 10 ml of growth media and the cell number determined using a hemocytometer. […]
Six to eight week old, female Crl:CD-1-nuBR (nude) mice were obtained from Charles River Laboratories (Wilmington, Mass., USA). […] Tumor volumes (V) were calculated by caliper measurement of the width (W), length (L) and thickness (T) of tumors using the following formula: V=[…]×(L×W×T) Animals were randomized into treatment groups so that the average tumor volumes of each group were similar at the start of dosing. […]

[5] = test system: Hsp90 protein; test: Malachite Green assay of ATPase activity of Hsp90 protein; type: biochemical; conditions: 37° C., 4 hours
Procedure: Hsp90 protein was obtained from Stressgen (Cat#SPP-770). Assay buffer: 100 mM Tris-HCl, Ph7.4, 20 mM KCl, 6 mM MgCl2. […] Malachite green reagent was added to the reaction. […] The plate was read by an ELISA reader with an absorbance at 620 nm.

[6] = test system: Her2; test: Degradation of Her2 in BT-474 cells, Western blot (Method 1); type: cell-based, human; conditions: overnight
Procedure: Human high-Her2 breast carcinoma BT474 (HTB-20), SK-BR-3 (HTB-30) and MCF-7 breast carcinoma (HTB-22) from American Type Culture Collection, VA, USA were grown in Dulbecco's modified Eagle's medium with 4 mM L-glutamine and antibiotics (100 IU/ml penicillin and 100 ug/ml streptomycine; GibcoBRL). To obtain exponential cell growth, cells were trypsinized, counted and seeded at a cell density of 0.5×10^6 cells/ml regularly, every 3 days. All experiments were performed on day 1 after cell passage.
After treatment, each cytoplasmic sample was prepared from 1×10^6 cells by incubation of cell lysis buffer (#9803, cell Signaling Technology) on ice for 10 minutes. The resulting supernatant used as the cytosol fractions were dissolved with sample buffer for SDS-PAGE and run on a SDS-PAGE gel, blotted onto a nitrocellulose membrane by using semi-dry transfer. Non-specific binding to nitrocellulose was blocked with 5% skim milk in TBS with 0.5% Tween at room temperature for 1 hour, then probed with anti-Her2/ErB2 mAb (rabbit IgG, #2242, Cell Signaling) and anti-Tubulin (T9026, Sigma) as housekeeping control protein. HRP-conjugated goat antirabbit IgG (H+L) and HRP-conjugated horse anti-mouse IgG (H+L) were used as secondary Ab (#7074, #7076, Cell Signaling) and LumiGLO reagent, 20× Peroxide (#7003, Cell Signaling) was used for visualization.

[7] = test system: human c-MET amplified gastric carcinoma tumor cell line MKN-45; test: MKN-45 nude mouse xenograft model; type: in vivo; conditions: 50 mg/kg body weight, i.v., 3 times per week, 9 doses
Procedure: The human gastric carcinoma cell line, MKN-45 (DSMZ #ACC 409), was obtained from the Deutsche Sammlung von Mikroorganismen and Zellkulturen GmbH (DSMZ; Braunschweig, Germany). […] FBS was obtained from ATCC and all other reagents were obtained from Invitrogen Corp. (Carlsbad, Calif., USA). Cells that had been cryopreserved in liquid nitrogen were rapidly thawed at 37° C. and transferred to a tissue culture flask containing growth media and then incubated at 37° C. in a 5% CO2 incubator. To expand the cell line, growth media was replaced every 2-3 days until the flask became 90% confluent, typically in 5-10 days. Cultures were passaged by washing with 10 mL of room temperature phosphate buffered saline (PBS) and then disassociating cells by adding 5 mL 1× trypsin-EDTA and incubating at 37° C. until the cells detached from the surface of the flask. To inactivate the trypsin, 5 mL of growth media was added and then the contents of the flask were centrifuged to pellet the cells. The supernatant was aspirated and the cell pellet was resuspended in 10 mL of growth media and the cell number determined using a hemocytometer. Approximately 3-6×10(6) cells per flask were seeded into 175 cm^2 flasks containing 50 mL of growth media and incubated at 37° C. in a 5% CO2 incubator. […]
Tumors were then permitted to develop in vivo until the majority reached 100-200 mm^3 in tumor volume, which required ˜2 weeks following implantation. […] Tumor volumes (V) were calculated by caliper measurement of the width (W), length (L) and thickness (T) of tumors using the following formula: V=0.5236×(L×W×T). Animals were randomized into treatment groups so that the average tumor volumes of each group were similar at the start of dosing. % T/C values, as a measure of efficacy, were determined as follows: • (i) If ΔT>0: % T/C=(ΔT/ΔC)×100 • (ii) If ΔT<0: % T/C=(ΔT/T0)×100 • (iii) ΔT=Change in average tumor volume between start of dosing and the end of study. • (iv) ΔC=Change in average tumor volume between start of dosing and the end of study. • (v) T0=Average tumor volume at start of dosing. […]

Compound: C=CCNC1=C2C[C@@H](C)C[C@H](OC)[C@H](O)[C@@H](C)/C=C(\C)[C@H](OC(N)=O)[C@@H](OC)/C=C\C=C(/C)C(=O)NC(=CC1=O)C2=O [Compound 17-AAG]
pIC50 [1]: 6.61 | pIC50 [2]: 6.69

Compound: CO[C@H]1/C=C\C=C(/C)C(=O)NC2=CC(=O)C(NCCN(C)C)=C(C[C@@H](C)C[C@H](OC)[C@H](O)[C@@H](C)/C=C(\C)[C@@H]1OC(N)=O)C2=O [Compound 17-DMAG]
pIC50 [1]: 7.02 | pIC50 [3]: 7.85 | pIC50 [2]: 7.15

Compound: C=CCNC1=C2C[C@@H](C)C[C@H](OC)[C@H](O)[C@@H](C)/C=C(\C)[C@H](OC(N)=O)[C@@H](OC)/C=C\C=C(/C)C(=O)NC(=CC1=O)C2=O [Compound 17AAG]
pIC50 [3]: 7.35

Compound: CCc1cc(-c2nnc(S)n2-c2cccc3ccccc23)c(O)cc1O [Compound 49, 3-(2,4-Dihydroxy-5-ethyl-phenyl)-4-(naphthalen-1-yl)-5-mercapto-triazole]
toxicity (effect on body weights) [4]: not associated with significant toxicity

inhibition of ATPase activity of Hsp90 ([5]; 4 μM): significant inhibition
Compound: Oc1ccc(-c2nnc(S)n2-c2cccc3ccccc23)c(O)c1 [Compound 108, 3-(2,4-Dihydroxy-3-phenyl)-4-(naphthalen-1-yl)-5-mercapto-triazole]
inhibition of ATPase activity of Hsp90 ([5]; 40 μM): even greater inhibition of ATPase activity of Hsp90 than geldanamycin | degradation of Her2 ([6]; 0.5 μM): partially degradated | degradation of Her2 ([6]; 2 μM): partially degradated | degradation of Her2 ([6]; 5 μM): almost completely degraded

Compound: CC(C)c1cc(-c2nnc(O)n2-c2ccc3c(ccn3C)c2)c(O)cc1O [Compound 226, 3-(2,4-dihydroxy-5-isopropyl-phenyl)-4-(1-methyl-indol-5-yl)-5-hydroxy-[1,2,4] triazole]
pIC50 [1]: 7.74 | pIC50 ([3]; Homo sapiens): 8.10 | pIC50 [2]: 7.59 | toxicity [7]: not associated with excessive toxicity; also recorded: Overt toxicity was not observed | % T/C value ([7]; day 36): 8% | average bodyweight loss relative to the start of the study ([7]; day 36): −3.5%
